Assays:
[1] = test system: Saccharomyces cerevisiae; assay: Antifungal activity against Saccharomyces cerevisiae RS321NYCp50 by microtiter yeast assay; type: functional, organism-based
[2] = test system: Saccharomyces cerevisiae; assay: Antifungal activity against Saccharomyces cerevisiae RS321NpRAD52 by microtiter yeast assay; type: functional, organism-based
[3] = test system: A2780; assay: Cytotoxicity against human A2780 cells; type: functional

| SMILES | Activity [1] | Activity [2] | Activity [3] [%] |
| --- | --- | --- | --- |
| CN(C=O)CCc1ccc(O)cc1 | Dose-dependent effect | Dose-dependent effect |  |
| CN1CCc2c([nH]c3ccccc23)C1 |  |  | 38 |
| CN(C)CCc1ccc(O)cc1 [HORDENINE] |  |  | 39 |

Source: ChEMBL document CHEMBL1158797, “Alkaloids and aromatics of Cyathobasis fruticulosa (Bunge) Aellen” (2005)
